Test results from PMC5318233 (Cancer letters, 2016).

Assays:
[1] = target: complex I (NADH-ubiquinone oxidoreductase); format: biochemical
[2] = target: complex III (electron transport chain); format: biochemical

Work on `Cc1ccc(Sc2cccc3[nH]c4nc(N)nc(N)c4c23)cc1` [AG311] yielded a Ki [1] of 0.84 µM and a Ki [2] of 32 µM.
